Experimental data taken from patent US20110105474A1, “HETEROCYCLIC DERIVATIVES AS HDAC INHIBITORS” (DAC S.r.l., priority 2008, published 2011).
Where a name gives a salt, the structure may show the parent alone.

What was measured:
Type in all cases: cell-based
K562 cells = test: Cell growth, CellTiter-Glo Luminescent Cell Viability Assay, K562; settings: Homo sapiens, 72 h incubation
Excerpt: (§1) CellTiter-Glo® Luminescent Cell Viability Assay (Promega) is a homogeneous method of determining the number of viable cells in culture based on quantitation of the present ATP, which indicates the presence of metabolically active cells. The homogeneous assay procedure involves addition of a single reagent (CellTiter-Glo®Reagent) directly to the cells, which leads to cell lysis and generation of a luminescent signal proportional to the amount of the ATP and the number of cells present in culture. The assay relies on the properties of a proprietary thermostable luciferase (Ultra-Glo® recombinant luciferase), which generates a luminescent signal.
(§2) K562, A549 and HCT-116 cells, in exponential growth, were incubated for 72 h with different concentrations of the inhibitors. After 72 h, a volume of CellTiter-Glo® Reagent equal to the volume of cell culture medium was added. The content was mixed for 2 min to induce cell lysis. The luminescence was recorded after further 10 min at RT in order to obtain a stabilized luminescent signal.
(§3) The IC50 was calculated using GraphPad Software.
(§4) IC50 results were allocated to one of 3 ranges as follows: Range A: IC50≦1.0 μM; Range B: from 1.0 to 3.0 μM; Range C: IC50≧3.0 μM.

A549 cells = test: Cell growth, CellTiter-Glo Luminescent Cell Viability Assay, A549; settings: Homo sapiens, 72 h incubation
Excerpt: as §1, §2, §3, §4

HCT-116 cells = test: Cell growth, CellTiter-Glo Luminescent Cell Viability Assay, HCT-116; settings: Homo sapiens, 72 h incubation, read-out: IC50 HCT116
Excerpt: as §1, §2, §3, §4

Compound | IC50 (K562 cells) [µM] | IC50 (A549 cells) [µM] | IC50 (HCT-116 cells) [µM]
O=C(/C=C/c1cccc(/C=C/C(=O)N2CCCC(c3ccc(F)cc3)C2)c1)NO (racemic) [Example 84, (±)-(E)-3-(3-{(E)-3-[3-(4-Fluoro-phenyl)-piperidin-1-yl]-3-oxo-propenyl}-phenyl)-N-hydroxy-acrylamide] | ≥ 3 | ≥ 3 | ≥ 3
O=C(/C=C/c1cccc(/C=C/C(=O)N2CCN(c3ccccc3)CC2)c1)NO [Example 3, (E)-N-Hydroxy-3-{3-[(E)-3-oxo-3-(4-phenyl-piperazin-1-yl)-propenyl]-phenyl}-acrylamide] | ≤ 1 | 1 to 3 | ≤ 1
O=C(/C=C/c1ccc(/C=C/C(=O)N2CCN(c3ccccc3)CC2)cc1)NO [Example 7, (E)-N-Hydroxy-3-{4-[(E)-3-oxo-3-(4-phenyl-piperazin-1-yl)-propenyl]-phenyl}-acrylamide] | ≥ 3 | ≥ 3 | ≥ 3
O=C(/C=C/c1ccc(/C=C/C(=O)N2CCN(c3ccccc3)CC2)cn1)NO [Example 11, (E)-N-Hydroxy-3-{5-[(E)-3-oxo-3-(4-phenyl-piperazin-1-yl)-propenyl]-pyridin-2-yl}-acrylamide] | 1 to 3 | ≥ 3 | 1 to 3
O=C(/C=C/c1cccc(/C=C/C(=O)N2CCN(c3ccccc3)CC2)n1)NO [Example 13, (E)-N-Hydroxy-3-{6-[(E)-3-oxo-3-(4-phenyl-piperazin-1-yl)-propenyl]-pyridin-2-yl}-acrylamide] | 1 to 3 | 1 to 3 | 1 to 3
O=C(/C=C/c1cccc(/C=C/C(=O)N2CCN(c3cccc(Cl)c3)CC2)n1)NO [Example 15, (E)-3-(6-{(E)-3-[4-(3-Chloro-phenyl)-piperazin-1-yl]-3-oxo-propenyl}-pyridin-2-yl)-N-hydroxy-acrylamide] | 1 to 3 | ≥ 3 | 1 to 3
O=C(/C=C/c1cccc(/C=C/C(=O)N2CCN(C(=O)c3ccccc3)CC2)n1)NO [Example 16, (E)-3-{6-[(E)-3-(4-Benzoyl-piperazin-1-yl)-3-oxo-propenyl]-pyridin-2-yl}-N-hydroxy-acrylamide hydrochloride] | ≥ 3 | ≥ 3 | ≥ 3
O=C(/C=C/c1cccc(/C=C/C(=O)N2CCC(Cc3ccccc3)CC2)n1)NO [Example 17, (E)-3-{6-[(E)-3-(4-Benzyl-piperidin-1-yl)-3-oxo-propenyl]-pyridin-2-yl}-N-hydroxy-acrylamide hydrochloride] | 1 to 3 | 1 to 3 | 1 to 3
O=C(/C=C/c1cccc(/C=C/C(=O)N2CCN(c3ccccc3Cl)CC2)n1)NO [Example 18, (E)-3-(6-{(E)-3-[4-(2-Chloro-phenyl)-piperazin-1-yl]-3-oxo-propenyl}-pyridin-2-yl)-N-hydroxy-acrylamide hydrochloride] | 1 to 3 | 1 to 3 | ≤ 1
O=C(/C=C/c1cccc(/C=C/C(=O)N2CCC(c3ccccc3)CC2)n1)NO [Example 19, (E)-N-Hydroxy-3-{6-[(E)-3-oxo-3-(4-phenyl-piperidin-1-yl)-propenyl]-pyridin-2-yl}-acrylamide hydrochloride] | 1 to 3 | 1 to 3 | 1 to 3
O=C(/C=C/c1cccc(/C=C/C(=O)N2CCN(c3ncccn3)CC2)n1)NO [Example 20, (E)-N-Hydroxy-3{-6-[(E)-3-oxo-3-(4-pyrimidin-2-yl-piperazin-1-yl)-propenyl]-pyridin-2-yl}-acrylamide hydrochloride] | ≥ 3 | ≥ 3 | ≥ 3
O=C(/C=C/c1cccc(/C=C/C(=O)N2CCN(c3ccc(Cl)cc3)CC2)n1)NO [Example 21, (E)-3-(6-{(E)-3-[4-(4-Chloro-phenyl)-piperazin-1-yl]-3-oxo-propenyl}-pyridin-2-yl)-N-hydroxy-acrylamide hydrochloride] | ≤ 1 | ≤ 1 | ≤ 1
O=C(/C=C/c1cccc(/C=C/C(=O)N2CCN(Cc3ccccc3)CC2)n1)NO [Example 22, (E)-3-{6-[(E)-3-(4-Benzyl-piperazin-1-yl)-3-oxo-propenyl]-pyridin-2-yl}-N-hydroxy-acrylamide hydrochloride] | 1 to 3 | ≥ 3 | 1 to 3
O=C(/C=C/c1cccc(/C=C/C(=O)N2CCN(CCc3ccccc3)CC2)n1)NO [Example 23, (E)-N-Hydroxy-3-{6-[(E)-3-oxo-3-(4-phenethyl-piperazin-1-yl)-propenyl]-pyridin-2-yl}-acrylamide hydrochloride] | 1 to 3 | ≥ 3 | 1 to 3
O=C(/C=C/c1cccc(/C=C/C(=O)N2CCC(C(=O)c3ccccc3)CC2)n1)NO [Example 24, (E)-3-{6-[(E)-3-(4-Benzoyl-piperidin-1-yl)-3-oxo-propenyl]-pyridin-2-yl}-N-hydroxy-acrylamide hydrochloride] | 1 to 3 | ≥ 3 | 1 to 3
O=C(/C=C/c1cccc(/C=C/C(=O)N2CC=C(c3ccccc3)CC2)n1)NO [Example 26, (E)-N-Hydroxy-3-{6-[(E)-3-oxo-3-(4-phenyl-3,6-dihydro-2H-pyridin-1-yl)-propenyl]-pyridin-2-yl}-acrylamide hydrochloride] | 1 to 3 | 1 to 3 | ≤ 1
Cc1cccc(C)c1C1CCN(C(=O)/C=C/c2cccc(/C=C/C(=O)NO)n2)CC1 [Example 27, (E)-3-(6-{(E)-3-[4-(2,6-Dimethyl-phenyl)-piperidin-1-yl]-3-oxo-propenyl}-pyridin-2-yl)-N-hydroxy-acrylamide hydrochloride] | 1 to 3 | 1 to 3 | 1 to 3
N#CC1(c2ccccc2)CCN(C(=O)/C=C/c2cccc(/C=C/C(=O)NO)n2)CC1 [Example 28, (E)-3-{6-[(E)-3-(4-Cyano-4-phenyl-piperidin-1-yl)-3-oxo-propenyl]-pyridin-2-yl}-N-hydroxy-acrylamide hydrochloride] | 1 to 3 | ≥ 3 | 1 to 3
O=C(/C=C/c1cccc(/C=C/C(=O)N2CCN(c3ccccn3)CC2)n1)NO [Example 29, (E)-N-Hydroxy-3-{6-[(E)-3-oxo-3-(4-pyridin-2-yl-piperazin-1-yl)-propenyl]-pyridin-2-yl}-acrylamide hydrochloride] | ≥ 3 | ≥ 3 | ≥ 3
Cc1cccc(C)c1N1CCN(C(=O)/C=C/c2cccc(/C=C/C(=O)NO)n2)CC1 [Example 31, (E)-3-(6-{(E)-3-[4-(2,6-Dimethyl-phenyl)-piperazin-1-yl]-3-oxo-propenyl}-pyridin-2-yl)-N-hydroxy-acrylamide hydrochloride] | 1 to 3 | ≥ 3 | 1 to 3
O=C(/C=C/c1cccc(/C=C/C(=O)N2CCC3(CC2)C(=O)NCN3c2ccccc2)n1)NO [Example 32, (E)-N-Hydroxy-3-{6-[(E)-3-oxo-3-(4-oxo-1-phenyl-1,3,8-triaza-spiro[4.5]dec-8-yl)-propenyl]-pyridin-2-yl}-acrylamide hydrochloride] | ≥ 3 | ≥ 3 | ≥ 3
